One assay deals with T1, 5-HT1A receptor (Rattus norvegicus, UniProt P19327).
T1 construct: the cerebral cortex is sampled and homogenized in 20 volumes of buffer; from tissue; host or cells: rat cerebral cortex homogenate (membranes)
T1 sequence (P19327 1-422): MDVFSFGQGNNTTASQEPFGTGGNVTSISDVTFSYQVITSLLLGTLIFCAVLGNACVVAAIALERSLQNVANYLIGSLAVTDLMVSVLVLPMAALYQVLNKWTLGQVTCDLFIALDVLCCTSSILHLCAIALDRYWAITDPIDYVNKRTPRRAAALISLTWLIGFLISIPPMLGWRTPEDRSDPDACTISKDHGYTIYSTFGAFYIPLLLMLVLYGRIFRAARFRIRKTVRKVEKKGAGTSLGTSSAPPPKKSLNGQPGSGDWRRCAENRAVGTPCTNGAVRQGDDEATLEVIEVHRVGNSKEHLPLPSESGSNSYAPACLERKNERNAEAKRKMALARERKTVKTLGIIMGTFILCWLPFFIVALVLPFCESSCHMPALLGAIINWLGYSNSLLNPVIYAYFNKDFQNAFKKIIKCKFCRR
Briefly: Affinity for 5-HT1A receptors, shift of (3H)8-OH-DPAT in rat cerebral cortex. The class given is binding. As to conditions: mean of at least 3 experiments, read-out: 5-HT1A affinity (pKi) (converted). The method, then: (§1) The affinity of the compounds of the invention for the rat 5-HT1A receptor was measured conventionally from competitive experiments with a radiolabelled 5-HT1A agonist. […] This test is widely used since it is predictive of antidepressant action in man. Analgesic activity was determined after intra-peritoneal administration to rats, both with a physiological pain model and a pathological pain model. By physiological pain, the inventors designate pain whose origin is a lesion and/or organic ill-function such as pain caused by excessive nociceptive stimuli.
The in vitro affinity of the compounds of the invention for the 5-HT1A receptors was determined by measuring the shift of (^3H)8-OH-DPAT (agonist of 5HT1A receptors labelled with tritium, TRK 850; 160-240 Ci/mmole).
The study on binding with the 5-HT1A receptor was conducted as described in Naunyn-Schmiedeberg's Arch. Pharmaco. 1991, 343, 106. For these experiments, rat cerebral cortices were used. After unfreezing the brain in Tris-HCl buffer 50 mmol, pH=7.40 at 25° C., the cerebral cortex is sampled and homogenized in 20 volumes of buffer held at 4° C. The homogenate is centrifuged at 39000 g for 10 min, the centrifuge residue is suspended in the same volume of buffer and again centrifuged. After further suspension under the same conditions, the homogenate is incubated for 10 min at 37° C. then again centrifuged. The final residue is suspended in cold reaction buffer Tris-HCl 50 mmol, pH=7.40 at 25° C. containing […] of pargyline, 4 mmol of CaCl2 and 0.10% ascorbic acid. The final concentration of the tissue in the incubation medium is 10 mg/tube.
The reaction tubes contain 0.10 mL of (^3H)8-OH-DPAT (final […]), 0.10 mL of product to be tested 6-7 concentrations and 0.80 mL of tissue. Non-specific binding is defined using […] of 5-HT. The reaction tubes are incubated at 23° C. for 30 min then their content is rapidly vacuum filtered through Whatman GF/B filters, the tubes are rinsed with 2×5 mL of Tris-HCl buffer 50 mmol, pH=7.4 at 25° C. Radioactivity is collected on the filter and analyzed by liquid scintillation by adding 4 mL of scintillating liquid (Emulsifier Safe, Packard). All experiments were performed in triplicate.
The inhibition constants (Ki) of the products of the invention are estimated from shift experiments using the non-linear regression programme RADLIG version 4 by EBDA (Equilibrium Binding Data Analysis Biosoft, Cambridge, UK, Mc Pherson, 1985). The dissociation constant of the radioactive ligand used for calculations is […] for (^3H)8-OH-DPAT. The values of pKi (−log Ki) are given in the form mean±SEM of at least 3 experiments.

Assay [1] has as its system rats, forced swimming immobility. Briefly: Forced swimming test (antidepressant activity). The format is in vivo. As to conditions: rat, oral. The method, then: as §1
The rats (Male Sprague Dawley rats (ICO: OFA SD [IOPS], Iffa Credo, France), are placed in a cylinder (45 cm high and 20 cm in diameter) filled with water at 25° C.±0.5 up to a height of 17 cm. This depth allows rats to swim or float without their tail touching the bottom of the cylinder.
24 h before the test day, the rats are placed in the cylinder for 15 min, a lapse of time after which they no longer attempt to escape and remain immobile. On the test day the animals are replaced in the cylinder and the duration of animal immobility is measured by direct observation followed by verification of an audiovisual recording for 5 min. The products of the invention are administered by oral route 60 min before the test. A rat is considered to be immobile if it allows itself to float and only makes small movements to remain on the surface. Two rats are observed at the same time.
(§2) Quantification of the effect of the compounds of the invention on the forced swimming tests and on the formol test is conducted by one-factor variance analysis between groups (ANOVA analysis) followed by a multiple comparison test (Dunnett's test) versus control animals. The ED50 value is calculated using Litchfield and Wilcoxon analysis from the percentage of responding animals.

Assay [2] relates to rats, formol-induced pain. The experiment in a line: Formol test (analgesic activity, physiological pain). The format is in vivo. As to conditions: rat, i.p.
Excerpt: (§3) The physiological pain model chosen by the inventors to determine the analgesic activity of the compounds of the invention uses excess nociceptive stimuli (injection of formol) to cause a painful sensation in animal (Eur. J. Pharmacol. 2001, 421, 109). For the so-called pathological pain model in animal, the inventors chose to use pain induced by the injection of a cytotoxic agent such as oxaliplatine (Eur. J. Cancer 2007, 2658).
The rats (Male Sprague Dawley rats (ICO: OFA SD [IOPS], Iffa Credo, France) are placed in plexiglass observation boxes above an angled mirror so as to facilitate observation of the hind paws. After thirty minutes of habituation, the animals are given an injection of formol diluted to 2.5% on the plantar surface of the right hind paw. The injection of formol produces behavioural responses which occur in two phases:
an acute phase, from 0 to 5 min after injection of the formol, corresponding to stimulation of receptors specialized in the transmission of pain messages to the spinal cord.
a late phase which occurs 20 to 30 min after the injection. This phase corresponds to stimulation of receptors by inflammatory mediators and/or to hyper-excitability of the dorsal horn induced during the first phase. This late phase therefore involves central sensitization.
For the study of the compounds of the invention we selected two expressions of painful behaviour and chose two periods of observation which correspond to the two pain phases (i.e. 0-5 min and 22.5-27.5 min). During these two 5-min periods the animals are observed every 30 seconds and are given scores for the following behaviours: paw licking or not of the injected paw, and lifting or non-lifting of the injected paw. Ten observations give a maximum score of 10 for each parameter for each of the 2 phases. The products of the invention are administered via intraperitoneal route 15 min before the injection of formol.
as §2
For this test, the animals are observed every 30 seconds during two periods of 5 min. The following behaviours are noted: paw licking or not of the injected paw, and paw lifting or not of the injected paw. Ten observations give a maximum score of 10 for each parameter for each of the 2 phases, measuring either paw lifting or paw licking. This test was also performed by comparison with administration of the vehicle (veh) alone.

Assay [3] deals with rats, oxaliplatine-induced allodynia. Briefly: Oxaliplatine test, von Frey (analgesic activity, pathological pain). As to conditions: rat, i.p. The class given is in vivo.
Excerpt: as §3
The rats (Male Sprague Dawley rats (ICO: OFA SD [IOPS], Iffa Credo, France) are tested a first time on the Friday to determine their mechanical sensitivity threshold (von Frey test). They are then given an intra-peritoneal injection (i.p.) of oxaliplatine (anticancer treatment causing neuropathic pain in patients) at a dose of 8 mg/kg. This dose in rat induces neuropathy which translates as mechanical hypersensitivity (allodynia) which develops 3 days after the injection with a peak on day five. For the study of the compounds of the invention, the animals are re-tested on day five, 15 min after administration of the compound via intra-peritoneal route.
The pressure force is then measured (in g) at which withdrawal of the paw of the animals is observed.

Entries after “also recorded” stand apart in the source; their conditions may differ. Where only a bound is given, the exact number is not on record here.

For the compound `O=C(c1ccc(F)c(Cl)c1)N1CCC(F)(CNCC2CNc3ccccc3O2)CC1` (single isomer, unassigned; (-)) [Compound 1a1, (−)-(3-Chloro-4-fluoro-phenyl)-{4-fluoro-4-[(3,4-dihydro-2H-1,4-benzoxazine-2-methanamino)-methyl]-pipéridin-1-yl}-methanone], at 5-HT1A receptor, the Ki was 1.02 nM. Further, the “dose on and after which none of the animals remains immobile” value in assay [1] was no less than 10 mg/kg. Moreover, the ED50 (as a rule, the dose at which the effect has come halfway, by size or by number of responders) worked out at 0.08 mg/kg in assay [1] (60 min before test, read-out: ED50, reduction of immobility time) and 0.05 mg/kg in assay [2] (ip, 15 min before formol, read-out: ED50, inhibition of paw lifting). Moreover, the “effect on animal immobility time” value in assay [1] (dose range) is “reducing the animal's immobility time in dose-dependent fashion”. Further, the “effect on paw lifting and paw licking, in words” value in assay [2] (acute and late phases) is “dose-dependent inhibition of the 2 measured parameters; also recorded: Full analgesia is obtained irrespective of the pain phase”. The “dose on and after which full analgesia is obtained” value in assay [3] (day five after oxaliplatine, von Frey) was no less than 0.04 mg/kg. In addition, the “effect on allodynia, in words” value in assay [3] (dose range) is listed as “dose-dependent inhibition of allodynia”.

Source of the values: patent publication US8669250B2, “Derivatives of aryl-{4-halogeno-4-[aminomethyl]-piperidin-1-yl}-methanone, their method of preparation and their use as medicinal products” (Pierre Fabre Medicament, priority 2009, dated 2014).
